# Experimental data from the supplement of paper PMC9013687.
# ± gives the standard deviation of the averaged measurements.
# Legend:
# Danio rerio embryo [1] = test: EC20 Eye-jaw distance_Decrease; higher = less potent; conditions: exposure time: 4 dpf
# Description: (§1)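 Zebrafish embryos (UFZ-OBI strain) were exposed from 2 hpf for 48 h (2 dpf) or 96 h (4 dpf) at 28 °C; spontaneous tail coiling was scored at 25 hpf. Morphological features from automated image analysis (FishInspector), heart rate and locomotor response were fitted with drc models. Quantal endpoints were dichotomised at 2.5 SD from controls and fitted with a log-logistic model; heart rate, pigmentation and STC were normalised to the replicate control mean. Betamethasone was tested as betamethasone dipropionate, diflorasone as diflorasone diacetate.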
# Danio rerio embryo [2] = test: EC20 Curvature_Increase; higher = less potent; conditions: exposure time: 2 dpf
# Description: as §1
# Danio rerio embryo [3] = test: EC20 LMR dark; higher = less potent; conditions: exposure time: 4 dpf
# Description: as §1
# Danio rerio embryo [4] = test: EC50 Body length_Decrease
# Description: as §1
# Danio rerio embryo [5] = test: EC20 Any effect; higher = less potent
# Description: as §1
# Danio rerio embryo [6] = test: EC10 Body length_Decrease; higher = less potent
# Description: as §1
# Danio rerio embryo [7] = test: EC20 Otolith-eye distance_Decrease; higher = less potent; conditions: exposure time: 4 dpf
# Description: as §1
# Danio rerio embryo [8] = test: EC10 Yolk sac size_Increase; higher = less potent; conditions: exposure time: 4 dpf
# Description: as §1
# Danio rerio embryo [9] = system: Danio rerio embryo
# Description: as §1
# Danio rerio embryo [10] = test: EC10 Curvature_Increase; higher = less potent; conditions: exposure time: 2 dpf
# Description: as §1
# Danio rerio embryo [11] = test: EC10 Any effect; higher = less potent
# Description: as §1
# Danio rerio embryo [12] = test: EC10 Bladder size_Decrease; higher = less potent; conditions: exposure time: 4 dpf
# Description: as §1
# Danio rerio embryo [13] = test: EC10 Pericard size_Increase; higher = less potent
# Description: as §1
# Danio rerio embryo [14] = test: EC10 Otolith-eye distance_Decrease; higher = less potent; conditions: exposure time: 4 dpf
# Description: as §1
# Danio rerio embryo [15] = test: EC50 Eye-jaw distance_Decrease; conditions: exposure time: 4 dpf
# Description: as §1
# Danio rerio embryo [16] = test: EC10 LMR dark; higher = less potent; conditions: exposure time: 4 dpf
# Description: as §1
# Danio rerio embryo [17] = test: EC20 Yolk sac size_Increase; higher = less potent; conditions: exposure time: 4 dpf
# Description: as §1
# Danio rerio embryo [18] = test: EC50 Yolk sac size_Increase; conditions: exposure time: 4 dpf
# Description: as §1
# Danio rerio embryo [19] = conditions: exposure time: 4 dpf
# Description: as §1
# Danio rerio embryo [20] = test: EC20 Bladder size_Decrease; higher = less potent; conditions: exposure time: 4 dpf
# Description: as §1
# Danio rerio embryo [21] = test: EC50 Otolith-eye distance_Decrease; conditions: exposure time: 4 dpf
# Description: as §1
# Danio rerio embryo [22] = test: EC50 Bladder size_Decrease; conditions: exposure time: 4 dpf
# Description: as §1
# Danio rerio embryo [23] = test: spontaneous tail coiling frequency (coils/min/embryo); higher = more spontaneous movement; conditions: 25 hpf
# Description: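 Spontaneous tail coilings of zebrafish embryos exposed from 2 hpf were recorded at 24-25 hpf in 1-min videos and detected by a KNIME workflow from grey-value variance. Betamethasone was tested as the dipropionate, diflorasone as the diacetate.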
# Danio rerio embryo [24] = test: EC20 Pericard size_Increase; higher = less potent
# Description: as §1
# Danio rerio embryo [25] = test: EC10 Eye-jaw distance_Decrease; higher = less potent; conditions: exposure time: 4 dpf
# Description: as §1
# Danio rerio embryo [26] = test: EC50 Pericard size_Increase
# Description: as §1
# Danio rerio embryo [27] = test: EC20 Body length_Decrease; higher = less potent
# Description: as §1
# Danio rerio embryo [28] = test: EC50 Curvature_Increase; conditions: exposure time: 2 dpf
# Description: as §1
smiles,measurement,setting,value
CSc1nc2cc(Cl)c(Oc3cccc(Cl)c3Cl)cc2[nH]1 [Triclabendazole],EC20 Eye-jaw distance Decrease,Danio rerio embryo [1],708 nM
same,EC20 Curvature Increase,Danio rerio embryo [2],1810 nM
same,EC20 LMR dark,Danio rerio embryo [3],240 nM
same,EC50 Body length Decrease,Danio rerio embryo [4]; exposure time: 2 dpf,1270 nM
same,EC50 Body length Decrease,Danio rerio embryo [4]; exposure time: 4 dpf,1090 nM
same,EC20 Any effect,Danio rerio embryo [5]; exposure time: 2 dpf,1040 nM
same,EC20 Any effect,Danio rerio embryo [5]; exposure time: 4 dpf,411 nM
same,EC10 Body length Decrease,Danio rerio embryo [6]; exposure time: 2 dpf,672 nM
same,EC10 Body length Decrease,Danio rerio embryo [6]; exposure time: 4 dpf,586 nM
same,EC20 Otolith-eye distance Decrease,Danio rerio embryo [7],622 nM
same,EC10 Yolk sac size Increase,Danio rerio embryo [8],458 nM
same,EC50 Any effect,Danio rerio embryo [9]; exposure time: 2 dpf,1340 nM
same,EC50 Any effect,Danio rerio embryo [9]; exposure time: 4 dpf,556 nM
same,EC50 Pigmentation increase,Danio rerio embryo [9]; exposure time: 4 dpf,690 nM
same,EC50 STC decrease,Danio rerio embryo [9]; exposure time: 25 h,76 nM
same,EC10 Curvature Increase,Danio rerio embryo [10],1710 nM
same,EC10 Any effect,Danio rerio embryo [11]; exposure time: 2 dpf,893 nM
same,EC10 Any effect,Danio rerio embryo [11]; exposure time: 4 dpf,344 nM
same,EC10 Bladder size Decrease,Danio rerio embryo [12],462 nM
same,EC10 Pericard size Increase,Danio rerio embryo [13]; exposure time: 2 dpf,651 nM
same,EC10 Pericard size Increase,Danio rerio embryo [13]; exposure time: 4 dpf,772 nM
same,EC10 Otolith-eye distance Decrease,Danio rerio embryo [14],538 nM
same,EC50 Eye-jaw distance Decrease,Danio rerio embryo [15],731 nM
same,EC10 LMR dark,Danio rerio embryo [16],178 nM
same,EC20 Yolk sac size Increase,Danio rerio embryo [17],533 nM
same,EC50 Yolk sac size Increase,Danio rerio embryo [18],691 nM
same,EC50 LMR dark,Danio rerio embryo [19],403 nM
same,EC20 Bladder size Decrease,Danio rerio embryo [20],475 nM
same,EC50 Otolith-eye distance Decrease,Danio rerio embryo [21],796 nM
same,EC50 Bladder size Decrease,Danio rerio embryo [22],497 nM
same,spontaneous tail coiling frequency,Danio rerio embryo [23]; 0.139 µM,0.65
same,spontaneous tail coiling frequency,Danio rerio embryo [23]; 0.488205 µM,1.35
same,spontaneous tail coiling frequency,Danio rerio embryo [23]; 0.577 µM,1.03
same,spontaneous tail coiling frequency,Danio rerio embryo [23]; 0.732308 µM,1.05
same,spontaneous tail coiling frequency,Danio rerio embryo [23]; 0.835 µM,1.49 ± 0.096
same,spontaneous tail coiling frequency,Danio rerio embryo [23]; 1.086 µM,1.13
same,spontaneous tail coiling frequency,Danio rerio embryo [23]; 1.09846 µM,0.655
same,spontaneous tail coiling frequency,Danio rerio embryo [23]; 1.412 µM,0.667 ± 0.38
same,spontaneous tail coiling frequency,Danio rerio embryo [23]; 1.64769 µM,1.2
same,spontaneous tail coiling frequency,Danio rerio embryo [23]; 1.835 µM,0.75 ± 0.38
same,spontaneous tail coiling frequency,Danio rerio embryo [23]; 2.386 µM,0.583 ± 0.35
same,spontaneous tail coiling frequency,Danio rerio embryo [23]; 2.47154 µM,0.315
same,spontaneous tail coiling frequency,Danio rerio embryo [23]; 3.70731 µM,0.06
same,EC20 Pericard size Increase,Danio rerio embryo [24]; exposure time: 2 dpf,1010 nM
same,EC20 Pericard size Increase,Danio rerio embryo [24]; exposure time: 4 dpf,775 nM
same,EC10 Eye-jaw distance Decrease,Danio rerio embryo [25],695 nM
same,EC50 Pericard size Increase,Danio rerio embryo [26]; exposure time: 2 dpf,2140 nM
same,EC50 Pericard size Increase,Danio rerio embryo [26]; exposure time: 4 dpf,782 nM
same,EC20 Body length Decrease,Danio rerio embryo [27]; exposure time: 2 dpf,850 nM
same,EC20 Body length Decrease,Danio rerio embryo [27]; exposure time: 4 dpf,738 nM
same,EC50 Curvature Increase,Danio rerio embryo [28],1980 nM
CCCCOC(=O)[C@@H](C)Oc1ccc(Oc2ccc(C(F)(F)F)cn2)cc1 [fluazifop-p-butyl],EC20 Eye-jaw distance Decrease,Danio rerio embryo [1],1040 nM
same,EC20 Curvature Increase,Danio rerio embryo [2],3340 nM
same,EC20 LMR dark,Danio rerio embryo [3],767 nM
same,EC50 Body length Decrease,Danio rerio embryo [4]; exposure time: 2 dpf,3700 nM
same,EC50 Body length Decrease,Danio rerio embryo [4]; exposure time: 4 dpf,2670 nM
same,EC20 Any effect,Danio rerio embryo [5]; exposure time: 2 dpf,942 nM
same,EC20 Any effect,Danio rerio embryo [5]; exposure time: 4 dpf,624 nM
same,EC10 Body length Decrease,Danio rerio embryo [6]; exposure time: 2 dpf,1090 nM
same,EC10 Body length Decrease,Danio rerio embryo [6]; exposure time: 4 dpf,702 nM
same,EC20 Otolith-eye distance Decrease,Danio rerio embryo [7],964 nM
same,EC10 Yolk sac size Increase,Danio rerio embryo [8],2240 nM
same,EC50 Any effect,Danio rerio embryo [9]; exposure time: 2 dpf,3100 nM
same,EC50 Otolith,Danio rerio embryo [9]; exposure time: 2 dpf,9450 nM
same,EC50 Any effect,Danio rerio embryo [9]; exposure time: 4 dpf,1540 nM
same,EC10 Curvature Increase,Danio rerio embryo [10],2280 nM
same,EC10 Any effect,Danio rerio embryo [11]; exposure time: 2 dpf,469 nM
same,EC10 Any effect,Danio rerio embryo [11]; exposure time: 4 dpf,368 nM
same,EC10 Bladder size Decrease,Danio rerio embryo [12],780 nM
same,EC10 Pericard size Increase,Danio rerio embryo [13]; exposure time: 2 dpf,1840 nM
same,EC10 Pericard size Increase,Danio rerio embryo [13]; exposure time: 4 dpf,485 nM
same,EC10 Otolith-eye distance Decrease,Danio rerio embryo [14],629 nM
same,EC50 Eye-jaw distance Decrease,Danio rerio embryo [15],2360 nM
same,EC10 LMR dark,Danio rerio embryo [16],362 nM
same,EC20 Yolk sac size Increase,Danio rerio embryo [17],2620 nM
same,EC50 Yolk sac size Increase,Danio rerio embryo [18],3420 nM
same,EC50 LMR dark,Danio rerio embryo [19],2380 nM
same,EC20 Bladder size Decrease,Danio rerio embryo [20],994 nM
same,EC50 Otolith-eye distance Decrease,Danio rerio embryo [21],2000 nM
same,EC50 Bladder size Decrease,Danio rerio embryo [22],1510 nM
same,spontaneous tail coiling frequency,Danio rerio embryo [23]; 1.29 µM,1.94
same,spontaneous tail coiling frequency,Danio rerio embryo [23]; 1.93 µM,1.98 ± 0.98
same,spontaneous tail coiling frequency,Danio rerio embryo [23]; 2.9 µM,2.62 ± 0.97
same,spontaneous tail coiling frequency,Danio rerio embryo [23]; 4.35 µM,1.95 ± 0.76
same,spontaneous tail coiling frequency,Danio rerio embryo [23]; 5.2 µM,0.71
same,spontaneous tail coiling frequency,Danio rerio embryo [23]; 6.52 µM,1.41 ± 0.83
same,spontaneous tail coiling frequency,Danio rerio embryo [23]; 9.78 µM,1.62 ± 0.014
same,EC20 Pericard size Increase,Danio rerio embryo [24]; exposure time: 2 dpf,2940 nM
same,EC20 Pericard size Increase,Danio rerio embryo [24]; exposure time: 4 dpf,834 nM
same,EC10 Eye-jaw distance Decrease,Danio rerio embryo [25],645 nM
same,EC50 Pericard size Increase,Danio rerio embryo [26]; exposure time: 2 dpf,6560 nM
same,EC50 Pericard size Increase,Danio rerio embryo [26]; exposure time: 4 dpf,2110 nM
same,EC20 Body length Decrease,Danio rerio embryo [27]; exposure time: 2 dpf,1710 nM
same,EC20 Body length Decrease,Danio rerio embryo [27]; exposure time: 4 dpf,1150 nM
same,EC50 Curvature Increase,Danio rerio embryo [28],6370 nM
